# Test results: patent publication US9951056B2, “Substituted nicotinamide inhibitors of BTK and their preparation and use in the treatment of cancer, inflammation and autoimmune disease” (BEIJING INNOCARE PHARMA TECH CO., LTD., priority 2013, dated 2018)
# Target: BTK (Homo sapiens (Human), UniProt Q06187)
# Test: ADP-Glo kinase biochemical assay, IC50 determination of BTK inhibitors
# Settings: ADP-Glo, ATP 50 uM; values given as bins
# Description: Biological Properties: IC50 Determination of BTK Inhibitors in ADP-Glo Kinase Biochemical Assay
# Those skilled in the art will appreciate that a variety of assay formats may be used to determine the activity of the compounds described herein.
# ADP-Glo™ Kinase Assay (Cat. V9102, 10000 Tests), Components: • 1×50 ml ADP-Glo™ Reagent, • 1×100 ml Kinase Detection Buffer, • 1× Kinase Detection Substrate (Lyophilized), • 1×5 ml Ultra Pure ATP, 10 mM • 1×5 ml ADP, 10 mM
# • Enzyme concentration: 8 ng/5 ul. • ATP concentration: 50 uM • Substrate (peptide) concentration: 0.2 mg/ml. • Reaction buffer composition: 40 mM Tris-HCl pH7.5, 10 mM MgCl2, 2 mM MnCl2, 0.1 mg/mL BSA, 0.05 mM DTT. • Test compound concentration: DMSO≤0.5%. Methods: Compound Dosage Gradient Solution Preparation: […]
# 1× and 2× assay buffer were made at first. BTK kinase was diluted with 1× assay buffer but substrate was diluted with 2× assay buffer. 1 ul of diluted compound was transferred into 384-well assay plate, and then 2.0 ul of enzyme solution was added, and spun at 2000 rpm for 1 min. This mixture was incubated at 24° C. for 30 mins. 2 ul of peptide substrate/ATP mixture was added into the assay plate to start the reaction. The mixture was mixed thoroughly and then the 384-well plate was spun and incubated at 24° C. for 60 mins. 5.0 ul of ADP-Glo Reagent was added to stop the kinase activity and deplete the ATP unconsumed, and the plate was mixed thoroughly and incubated at 24° C. for 40 min. Then, 10.0 ul of Kinase Detection reagent was added, and the plate was centrifuged and then kept at 24° C. for 30 min. The luminescence signal was read on Envision.
# IC50 values of compounds were calculated from a 4-parameter fit using Equation (2): Y=Bottom+(TOP-Bottom)/(1+((C/X)^hillslope)) Equation (2)
# In Equation 2, Y represents % inhibition, X is the log value of the test compound concentration. IC50 was the concentration of compound where half of maximal inhibition was achieved.
# All data was analyzed with IDBS XLfit5 software (ID Business Solutions Ltd., UK).
# BTK, sequence (Q06187 whole entry): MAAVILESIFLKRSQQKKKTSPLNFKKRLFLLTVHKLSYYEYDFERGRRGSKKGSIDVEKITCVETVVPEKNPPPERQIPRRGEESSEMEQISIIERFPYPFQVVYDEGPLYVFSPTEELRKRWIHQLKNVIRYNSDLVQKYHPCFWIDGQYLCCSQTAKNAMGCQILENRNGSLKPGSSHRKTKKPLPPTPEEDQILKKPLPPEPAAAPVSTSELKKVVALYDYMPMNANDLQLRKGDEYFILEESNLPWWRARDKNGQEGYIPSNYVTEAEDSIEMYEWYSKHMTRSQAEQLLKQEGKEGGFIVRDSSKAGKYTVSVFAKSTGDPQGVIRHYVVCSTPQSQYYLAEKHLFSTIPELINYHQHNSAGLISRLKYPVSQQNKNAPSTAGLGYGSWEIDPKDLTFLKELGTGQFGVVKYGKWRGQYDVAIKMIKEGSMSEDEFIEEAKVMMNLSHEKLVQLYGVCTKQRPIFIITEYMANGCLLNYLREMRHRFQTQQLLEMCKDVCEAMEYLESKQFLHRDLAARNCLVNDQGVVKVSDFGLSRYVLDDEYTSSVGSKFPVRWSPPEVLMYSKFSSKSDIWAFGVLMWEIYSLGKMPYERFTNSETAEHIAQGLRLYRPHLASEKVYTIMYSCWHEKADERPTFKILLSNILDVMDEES
row,Structure (SMILES),IC50
1,"C=CC(=O)Nc1cccc(-n2cc(C(N)=O)c(-c3ccc(Oc4ccccc4)cc3)n2)c1 [Example 18, 1-(3-acrylamidophenyl)-3-(4-phenoxyphenyl)-1H-pyrazole-4-carboxamide]",< 500 nM
2,"N#C/C(=C\C1CC1)C(=O)N1CC(n2cc(C(N)=O)c(-c3ccc(Oc4ccccc4)cc3)n2)C1 [Example 53, (E)-1-(1-(2-cyano-3-cyclopropylacryloyl)azetidin-3-yl)-3-(4-phenoxyphenyl)-1H-pyrazole-4-carboxamide]",≥ 1000 nM
3,"NC(=O)c1cn(-c2cccc(N)c2)nc1-c1ccc(Oc2ccccc2)cc1 [Example 17, 1-(3-aminophenyl)-3-(4-phenoxyphenyl)-1H-pyrazole-4-carboxamide]",< 500 nM
4,"C=CC(=O)N1CCN(c2ccc(C(N)=O)c(-c3ccc(Oc4ccccn4)cc3)n2)CC1 [Example 32, 6-(4-acryloylpiperazin-1-yl)-2-(4-(pyridin-2-yloxy)phenyl)nicotinamide]",< 500 nM
5,"C=CC(=O)N1CC[C@H](n2cc(C(N)=O)c(-c3ccc(Oc4ccccc4)cc3)n2)C1 [Example 19, (S)-1-(1-acryloylpyrrolidin-3-yl)-3-(4-phenoxyphenyl)-1H-pyrazole-4-carboxamide]",< 500 nM
6,"C=CC(=O)N1CCN(c2ccc(C(N)=O)c(-c3ccc(Oc4ccccc4)c(F)c3)n2)CC1 [Example 36, 6-(4-acryloylpiperazin-1-yl)-2-(3-fluoro-4-phenoxyphenyl)nicotinamide]",< 500 nM
7,"C=CC(=O)N1CCN(c2ccc(C(N)=O)c(-c3ccc(Oc4ccccc4)nc3)n2)CC1 [Example 31, 6-(4-acryloylpiperazin-1-yl)-6′-phenoxy-2,3′-bipyridine-3-carboxamide]",500 to 1000 nM
8,"C=CC(=O)N1CCN(c2nc(-c3ccc(Oc4ccccc4)cc3)c(C(N)=O)s2)CC1 [Example 51, 2-(4-acryloylpiperazin-1-yl)-4-(4-phenoxyphenyl)thiazole-5-carboxamide]",< 500 nM
9,"C=CC(=O)N1CCCC(c2nc(C(N)=O)c(-c3ccc(Oc4ccccc4)cc3)s2)C1 (centres unmarked) [Example 45, 2-(1-acryloylpiperidin-3-yl)-5-(4-phenoxyphenyl)thiazole-4-carboxamide]",< 500 nM
10,"C=CS(=O)(=O)N1CCN(c2ccc(C(N)=O)c(-c3ccc(Oc4ccccc4)cc3)n2)CC1 [Example 62, 2-(4-phenoxyphenyl)-6-(4-(vinylsulfonyl)piperazin-1-yl)nicotinamide]",< 500 nM
11,"C=CC(=O)N1CCC(c2ccc(C(N)=O)c(-c3ccc(Oc4ccccc4)cc3)n2)C1 (centres unmarked) [Example 23, 6-(1-acryloylpyrrolidin-3-yl)-2-(4-phenoxyphenyl)pyridine-3-carboxamide]",< 500 nM
12,"C=CC(=O)N1CCC(c2ncc(C(N)=O)c(-c3ccc(Oc4ccccc4)cc3)n2)CC1 [Example 21, 2-(1-acryloylpiperidin-4-yl)-4-(4-phenoxyphenyl)pyrimidine-5-carboxamide]",< 500 nM
13,"C=CC(=O)N1CCN(c2ccc(C(=O)O)c(-c3ccc(Oc4ccccc4)cc3)n2)CC1 [Example 26, 6-(4-acryloylpiperazin-1-yl)-2-(4-phenoxyphenyl)pyridine-3-carboxylic acid]",< 500 nM
14,"C=CC(=O)N1CCN(c2ccc(C(N)=O)c(-c3ccc(OC4CCC(F)(F)CC4)cc3)n2)CC1 [Example 60, 6-(4-acryloylpiperazin-1-yl)-2-(4-((4,4-difluorocyclohexyl)oxy)phenyl)nicotinamide]",< 500 nM
15,"C=CC(=O)N1CCN(c2ccc(C(N)=O)c(-c3ccc(F)c(OC)c3)n2)CC1 [Example 30, 6-(4-acryloylpiperazin-1-yl)-2-(4-fluoro-3-methoxyphenyl)nicotinamide]",≥ 1000 nM
16,"C=CC(=O)N1CCC(c2cc(C(N)=O)nn2-c2ccc(Oc3ccccc3)cc2)CC1 [Example 56, 5-(1-acryloylpiperidin-4-yl)-1-(4-phenoxyphenyl)-1H-pyrazole-3-carboxamide]",≥ 1000 nM
17,"C=CC(=O)N1CCC(c2nc(C(N)=O)c(-c3ccc(Oc4ccccc4)cc3)s2)CC1 [Example 49, 2-(1-acryloylpiperidin-4-yl)-5-(4-phenoxyphenyl)thiazole-4-carboxamide]",< 500 nM
